Assay results: patent US20240018153A1, “BENZENESULFONAMIDE DERIVATIVES AND USES THEREOF” (2692372 ONTARIO, INC., priority 2020, published 2024)

What was measured:
[1] = molecular target: BTK (Homo sapiens (Human), UniProt Q06187); test: Ramos RA1 cell lysis and immunoassay, phospho-BTK (Y223) inhibition; assay type: cell-based; parameters: key: X: BTK bound and autophosphoration of BTK inhibited in cells; details: RAMOS cells, compound concentration 1 μM
Procedure, shortened: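 Ramos RA1 cells treated with compound or DMSO for 24 h at 37° C., lysed in RIPA, analysed by Simple Western. Total BTK normalised to β-actin, pBTK (Y223) to total-protein reagent; both expressed relative to DMSO control.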

[2] = molecular target: T1, EGFR (Homo sapiens (Human), UniProt P00533); test: A549 cell lysis and immunoassay, total EGFR degradation; assay type: cell-based; parameters: key: Y: EGFR bound in cells and EGFR degradation occurred; details: A549 cells
Method: (§1) A549 cells (ATCC) were cultured in Dulbecco's Modified Eagle's Medium (DMEM) (Wisent) supplemented with 10% FBS and 1% penicillin/streptomycin. Cells were seeded in 6-well plates at 530,000 cells/well and incubated at 37° C., 5% CO2 for 16 hours. Cells were starved in DMEM containing 1% FBS for 4 hours before they were treated with the indicated concentrations of compound or DMSO alone and incubated at 37° C., 5% CO2 for 24 hours. Prior to cell harvest and lysis, 50 ng/ml human epidermal growth factor (hEGF) (Sigma) was added to the cells and incubated at 37° C., 5% CO2 for 10 minutes. Conditioned media was discarded, and adherent cells were washed with PBS before they were scraped on ice. Cell suspensions were centrifugated at 2,000 RPM for 5 minutes at 4° C. and supernatants were discarded. Cell pellets were resuspended with 1× RIPA buffer (Millipore) and incubated on ice for 15 minutes. Protein lysates were extracted by centrifugating at 20,000 RPM for 20 minutes at 4° C. Proteins were separated and total EGFR protein levels were quantified by Simple Western Immunoassay (ProteinSimple) using the Protein Normalization Assay Module for Jess according to the manufacturer's protocol, using a protein concentration of 0.125 μg/μl and an antibody targeting EGFR (clone #EP38Y, Abcam) diluted to 1:400. Phosphorylated EGFR protein levels were quantified with the same assay using a protein concentration of 1 μg/μl and an antibody targeting pEGFR (Y1068) (Cell Signalling) diluted to 1:25. EGFR and phosphorylated EGFR levels were normalized to the Jess Protein Normalization Reagent loading control and subsequently to the DMSO control.

[3] = molecular target: T1, EGFR; test: A549 cell lysis and immunoassay, phospho-EGFR (Y1068) inhibition; assay type: cell-based; parameters: key: X: EGFR bound and autophosphoration of EGFR inhibited in cells; details: A549 cells; for pEGFR inhibition (A549, compound concentration, 24 h): compound concentration 10 μM
Method: as §1

[4] = molecular target: T1, EGFR; test: Time-dependent inhibition of EGFR (HTRF); assay type: biochemical; details: pre-incubation 0-60 min; for Time-dependent inhibition of EGFR: product formation versus pre-incubation time: mono-exponential decay fit
Method: For the time-dependent inhibition experiments, the activity of EGFR kinase was monitored using a HTRF® KinEASE-TK kit from Cisbio (62TK0PEC) as described above. Six compounds showing higher potency during dose response analysis against EGFR, were further evaluated for their change in inhibitory potency over time. Ibrutinib was used as a positive control. The selected compounds were pre incubated with the kinase at 11 different concentrations, ranging from […] to 25 uM final compound concentrations. The pre incubation times were 0, 2, 5, 10, 15, 30, 45 and 60 min. After the preincubation, the reaction was initiated by adding biotinylated substrate and ATP and the reaction was allowed to proceed for 45 min. […] The reaction was terminated by adding 31.25 nM SA-XL665 and 100 fold diluted europium labelled antibody (Eu-Ab), diluted in 1× detection buffer that contained EDTA. After 60 min of incubation, the fluorescence emission was measured at 620 nm and 665 nm. The ratio of Em 665 nm to Em 620 nm was proportional to the amount of substrate phosphorylated by the kinase. Product formation vs pre-incubation time data were fitted to a one phase exponential decay equation using GraphPad Prism. The same product formation vs inhibitor concentration data were also fitted to a log(antagonist) vs. response—Variable slope equation in GraphPad Prism to provide IC50 values at different pre incubation times.

[5] = molecular target: T1, EGFR; test: Jump dilution experiment, EGFR; assay type: biochemical; details: 1.5-h incubation, 46 nM EGFR, 10×IC50 compound, 100-fold dilution
Method: Six compounds (used at 10 times their IC50 concentrations) were pre incubated with EGFR (at 46 nM or 100-fold the normal assay concentration) for 1.5 h at room temperature. Sample containing only DMSO vehicle was used as a positive (full activity) control while sample with no enzyme was used as a negative (zero activity) control. After the preincubation, the mixture was diluted 100-fold into a reaction mixture containing 0.5 uM biotinylated substrate and 1.57 uM ATP and the reaction was allowed to proceed for various time points (2, 5, 10, 15, 30, 40, 45 and 60 min), at which the reaction was terminated by adding 1 ul of 0.5 M EDTA. 31.25 nM SA-XL665 and 100-fold diluted europium labelled antibody (Eu-Ab), diluted in 1× detection buffer, was added as detection mixture. After 60 min of incubation, the fluorescence emission was measured at 620 nm and 665 nm. The ratio of Em 665 nm to Em 620 nm was proportional to the amount of substrate phosphorylated by the kinase.

[6] = compound concentration 10, 24 h

T1 sequence (P00533 25-1210): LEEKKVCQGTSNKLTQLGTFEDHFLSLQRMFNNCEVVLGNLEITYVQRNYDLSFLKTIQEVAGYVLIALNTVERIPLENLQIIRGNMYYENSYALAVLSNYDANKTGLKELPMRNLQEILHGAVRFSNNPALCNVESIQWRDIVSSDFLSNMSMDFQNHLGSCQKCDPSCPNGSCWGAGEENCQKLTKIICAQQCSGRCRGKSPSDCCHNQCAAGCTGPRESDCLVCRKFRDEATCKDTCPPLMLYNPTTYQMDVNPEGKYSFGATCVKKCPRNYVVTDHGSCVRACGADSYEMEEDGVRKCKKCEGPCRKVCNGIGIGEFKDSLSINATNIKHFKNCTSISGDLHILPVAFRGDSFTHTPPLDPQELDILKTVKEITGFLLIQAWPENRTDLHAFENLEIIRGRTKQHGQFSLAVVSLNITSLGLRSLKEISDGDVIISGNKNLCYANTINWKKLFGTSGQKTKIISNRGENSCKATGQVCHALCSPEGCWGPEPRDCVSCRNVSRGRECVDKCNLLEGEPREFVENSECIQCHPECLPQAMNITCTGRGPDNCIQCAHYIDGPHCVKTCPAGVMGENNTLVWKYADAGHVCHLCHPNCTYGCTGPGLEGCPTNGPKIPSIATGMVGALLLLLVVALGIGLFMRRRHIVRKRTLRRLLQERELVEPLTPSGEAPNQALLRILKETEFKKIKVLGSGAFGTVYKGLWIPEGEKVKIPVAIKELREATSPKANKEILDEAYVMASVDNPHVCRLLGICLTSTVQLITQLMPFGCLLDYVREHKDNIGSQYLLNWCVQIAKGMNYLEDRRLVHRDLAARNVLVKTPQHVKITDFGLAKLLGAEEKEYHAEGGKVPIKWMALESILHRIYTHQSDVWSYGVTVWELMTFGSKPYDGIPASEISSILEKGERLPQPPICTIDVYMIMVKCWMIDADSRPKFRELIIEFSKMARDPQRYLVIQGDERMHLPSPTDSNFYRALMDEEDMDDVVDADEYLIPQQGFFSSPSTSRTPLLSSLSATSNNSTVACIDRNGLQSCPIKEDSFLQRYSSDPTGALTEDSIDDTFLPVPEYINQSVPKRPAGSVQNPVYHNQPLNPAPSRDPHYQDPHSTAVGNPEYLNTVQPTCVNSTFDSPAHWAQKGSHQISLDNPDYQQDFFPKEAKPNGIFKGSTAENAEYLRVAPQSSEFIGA
Chain of BTK (Q06187 whole entry): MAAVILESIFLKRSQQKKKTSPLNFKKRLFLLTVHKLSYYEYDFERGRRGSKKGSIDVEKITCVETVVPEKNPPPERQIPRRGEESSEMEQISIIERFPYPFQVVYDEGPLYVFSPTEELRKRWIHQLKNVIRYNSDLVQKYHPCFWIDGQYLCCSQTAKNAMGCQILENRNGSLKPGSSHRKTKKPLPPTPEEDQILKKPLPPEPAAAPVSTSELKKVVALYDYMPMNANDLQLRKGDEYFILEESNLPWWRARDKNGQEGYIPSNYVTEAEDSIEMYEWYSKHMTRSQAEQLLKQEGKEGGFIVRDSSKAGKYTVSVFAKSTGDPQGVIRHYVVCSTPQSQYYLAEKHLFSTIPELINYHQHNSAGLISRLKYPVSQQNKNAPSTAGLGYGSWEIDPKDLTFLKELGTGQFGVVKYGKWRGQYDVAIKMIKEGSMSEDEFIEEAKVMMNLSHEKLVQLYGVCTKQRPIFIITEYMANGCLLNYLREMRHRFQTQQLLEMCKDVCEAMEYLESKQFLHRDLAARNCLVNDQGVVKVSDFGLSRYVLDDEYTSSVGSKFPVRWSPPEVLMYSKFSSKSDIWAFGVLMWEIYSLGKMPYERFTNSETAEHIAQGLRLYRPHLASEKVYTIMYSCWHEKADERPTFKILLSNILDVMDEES

SMILES	pBTK inhibition (RAMOS, 24 h) [1]	EGFR degradation (A549, 1 μM, 24 h) [2]	EGFR degradation (A549, compound concentration, 24 h) [2, 6]	pEGFR inhibition (A549, 1 μM, 24 h) [3]	pEGFR inhibition (A549, compound concentration, 24 h) [3]	Time-dependent inhibition of EGFR: product formation versus pre-incubation time [4]	Time-dependent inhibition of EGFR: IC50 values versus pre-incubation time [4]	residual activity of EGFR after jump dilution, relative to enzyme incubated with DMSO alone [5]	EGFR degradation (A549, compound concentration, 24 h) ([2]; compound concentration 5, 24 h)
C[S@+]([O-])c1c(F)c(F)c(F)c(F)c1C(=O)N1CC(n2nc(-c3ccc(Oc4ccccc4)cc3)c3c(N)ncnc32)C1 (racemic) [Compound I-37, (3-(4-amino-3-(4-phenoxyphenyl)-1H-pyrazolo[3,4-d]pyrimidin-1-yl)azetidin-1-yl)(2,3,4,5-tetrafluoro-6-(methylsulfinyl)phenyl)methanone]	X	Y	Y	X	X	concentration-dependent first order loss of enzyme activity	decrease as pre-incubation times increase	–	–
CS(=O)(=O)c1c(F)c(F)c(F)c(F)c1Nc1cc2c(Nc3ccc(F)c(Cl)c3)ncnc2cc1O[C@H]1CCOC1 [Compound I-2, (S)—N^4-(3-chloro-4-fluorophenyl)-N^6-(2,3,4,5-tetrafluoro-6-(methylsulfonyl)phenyl)-7-((tetrahydrofuran-3-yl)oxy)quinazoline-4,6-diamine]	–	Y	Y	X	X	concentration-dependent first order loss of enzyme activity	decrease as pre-incubation times increase	less than 20%	–
C[S+]([O-])c1c(F)c(F)c(F)c(F)c1C(=O)Nc1cc2c(Nc3ccc(F)c(Cl)c3)ncnc2cc1OC1CCOC1 (centres unmarked) [Compound I-3]	X	–	Y	X	X	concentration-dependent first order loss of enzyme activity	decrease as pre-incubation times increase	less than 20%	–
C[S+]([O-])c1c(F)c(F)c(F)c(F)c1Nc1cc2c(Nc3ccc(F)c(Cl)c3)ncnc2cc1O[C@H]1CCOC1 (stereo partly drawn) [Compound I-4, N^4-(3-chloro-4-fluorophenyl)-N^6-(2,3,4,5-tetrafluoro-6-(methylsulfinyl)phenyl)-7-(((S)-tetrahydrofuran-3-yl)oxy)quinazoline-4,6-diamine]	–	Y	Y	X	X	concentration-dependent first order loss of enzyme activity	decrease as pre-incubation times increase	less than 20%	–
Nc1ncnc2c1c(-c1ccc(Oc3ccccc3)cc1)nn2CCNC(=O)c1c(F)c(F)c(F)c(F)c1S(N)(=O)=O [Compound I-42, N-(2-(4-amino-3-(4-phenoxyphenyl)-1H-pyrazolo[3,4-d]pyrimidin-1-yl)ethyl)-2,3,4,5-tetrafluoro-6-sulfamoylbenzamide]	X	Y	Y	X	X	–	–	–	–
CS(=O)(=O)c1c(F)c(F)c(F)c(F)c1CNCCNc1ncnc2[nH]ccc12 [Compound I-50, N^1-(7H-pyrrolo[2,3-d]pyrimidin-4-yl)-N2-(2,3,4,5-tetrafluoro-6-(methylsulfonyl)benzyl) ethane-1,2-diamine]	X	Y	–	X	X	–	–	–	–
COCCOc1ccc(Nc2ncc(F)c(Nc3cccc(NC(=O)c4c(F)c(F)c(F)c(F)c4S(=O)(=O)N(C)C)c3)n2)cc1 [Compound I-59, 2-(N,N-dimethylsulfamoyl)-3,4,5,6-tetrafluoro-N-(3-((5-fluoro-2-((4-(2-methoxyethoxy)phenyl)amino)pyrimidin-4-yl)amino)phenyl)benzamide]	X	Y	–	X	X	–	–	–	Y
COCCOc1ccc(Nc2ncc(F)c(Nc3cccc(NC(=O)c4c(F)c(F)c(F)c(F)c4S(C)(=O)=O)c3)n2)cc1 [Compound I-61, 2,3,4,5-tetrafluoro-N-(3-((5-fluoro-2-((4-(2-methoxyethoxy)phenyl)amino)pyrimidin-4-yl)amino)phenyl)-6-(methylsulfonyl)benzamide]	X	Y	Y	X	–	–	–	–	–
COCCOc1ccc(Nc2ncc(F)c(Nc3cccc(Nc4c(F)c(F)c(F)c(F)c4S(C)(=O)=O)c3)n2)cc1 [Compound I-64, 5-fluoro-N^2-(4-(2-methoxyethoxy)phenyl)-N^4-(3-((2,3,4,5-tetrafluoro-6-(methylsulfonyl)phenyl)amino)phenyl)pyrimidine-2,4-diamine]	X	Y	Y	X	–	–	–	–	–
